# In patent publication US9832992B1, “Microbicidal composition” (Dow Global Technologies LLC, priority 2013, dated 2017):
# Like-named read-outs stand apart in the source and are kept apart here.
# Tests used:
# Type in all cases: cell-based
# [1] = tested on: Candida albicans ATCC#10203; experiment: MIC / synergy index test in 96 well microtiter plates, yeast
# Method: (§1) Surfactants and biocides were evaluated for synergy by determining the synergy index (S.I.) of the combination. Synergy index was calculated based on minimum inhibitory concentrations (MIC) of two antimicrobial compounds (A and B) alone and in combinations. The tests organisms were Gram negative bacteria (Pseudomonas aeruginosa ATCC #15442), Gram positive bacteria (Staphylococcus aureus ATCC #6538), yeast (Candida albicans ATCC#10203) and mold (Aspergillus niger ATCC#16404). Contact time for the bacteria was 24 and 48 hours, yeast was 48 and 72 hrs, and 3 and 7 days for mold. The test was carried out in 96 well microtiter plates.
# (§2) SI is calculated as follows: Ca/CA+Cb/CB=Synergy Index (“SI”)
# (§3) Wherein: • CA=concentration of compound A in ppm, acting alone, which produced an end point (MIC of Compound A). • Ca=concentration of compound A in ppm, in the mixture, which produced an end point. • CB=concentration of compound B in ppm, acting alone, which produced an end point (MIC of Compound B). • Cb=concentration of compound B in ppm, in the mixture, which produced an end point. When the sum of Ca/CA and Cb/CB is greater than one, antagonism is indicated.
# [2] = tested on: Staphylococcus aureus ATCC #6538; experiment: MIC / synergy index test in 96 well microtiter plates, Gram positive bacteria
# Method: as §1, §2, §3
# [3] = tested on: Aspergillus niger ATCC#16404; experiment: MIC / synergy index test in 96 well microtiter plates, mold
# Method: as §1, §2, §3
# [4] = tested on: Pseudomonas aeruginosa ATCC #15442; experiment: MIC / synergy index test in 96 well microtiter plates, Gram negative bacteria
# Method: as §1, §2, §3
CB (MIC of compound B alone) ([1]; B: BNPD; table with Surf. E; 48 hrs; Media: PDB; Inoculum size: 1.808E+06 CFU/ml) [ppm],"MIC ([1]; Candida albicans, ATCC10203, 48 h; read-out: CB (MIC of compound B alone)) [µg/mL]",CB (MIC of compound B alone) ([2]; B: BNPD; table with Surf. E; 24 hrs; Media: 1/10 TSB; Inoculum size: 1.808E+06 CFU/ml) [ppm],"MIC ([2]; Staphylococcus aureus, ATCC6538, 24 h; read-out: CB (MIC of compound B alone)) [µg/mL]","MIC ([3]; Aspergillus niger, ATCC16404; read-out: CB (MIC of compound B alone)) [µg/mL]",CB (MIC of compound B alone) ([4]; B: BNPD; table with Surf. D; 24 hrs; Media: 1/10 TSB; Inoculum size: 1.16E+08) [ppm],CB (MIC of compound B alone) ([4]; B: BNPD; table with Surf. E; 24 hrs; Media: 1/10 TSB; Inoculum size: 5.727E+07 CFU/ml) [ppm],"MIC ([4]; Pseudomonas aeruginosa, ATCC15442, 24 h; read-out: CB (MIC of compound B alone)) [µg/mL]",Structure (SMILES),CB (MIC of compound B alone) ([1]; B: DAZOMET; table with Surf. D; 48 hrs; Media: PDB; Inoculum size: 5.72E+05) [ppm],"MIC ([1]; Candida albicans, ATCC10203, 48 h, read-out: CB (MIC of compound B alone)) [µg/mL]",CB: MIC of B alone ([2]; B: DAZOMET alone; 24 hrs; Media 1/10 TSB; inoculum 5.72E+05) [PPM AI],"MIC ([2]; Staphylococcus aureus, ATCC6538, 24 h, read-out: CB (MIC of compound B alone)) [µg/mL]",CB: MIC of B (DAZOMET) alone ([3]; A. niger ATCC #16404; 3rd day; Media: PDB; Inoculum size: 1.156E+06; table with A: Surf. E) [PPM AI],CB: MIC of B (DAZOMET) alone ([3]; A. niger ATCC #16404; 3rd day; Media: PDB; Inoculum size: 1.56E+06; table with A: Surf. D) [PPM AI],"MIC ([3]; Aspergillus niger, ATCC16404, read-out: CB (MIC of compound B alone)) [µg/mL]","MIC ([4]; Pseudomonas aeruginosa, ATCC15442, 24 h, read-out: CB (MIC of compound B alone)) [µg/mL]"
–,–,–,–,–,–,–,–,"CN1CSC(=S)N(C)C1 [DAZOMET, tetrahydro-3,5-dimethyl-2H-1,3,5-thiadiazine-2-thione]",50,50,200,200,30,40,60,80
1000,1000,20,20,1000,10,10,10,"O=[N+]([O-])C(Br)(CO)CO [BNPD, 2-bromo-2-nitropropane-1,3-diol]",–,–,–,–,–,–,–,–
